Source: the Kinase Knowledgebase extract (Sharma et al. 2016)

target: CDK2 (human) (UniProt P24941); test: Enzyme Assay

| SMILES | IC50 [µM] |
| --- | --- |
| Cc1c(-c2ccnc(Nc3cccc(Cl)c3)n2)ccnc1NCCCN1CCOCC1 | < 5 |
| CC(=O)NCCCNc1ncccc1-c1ccnc(Nc2cccc(Cl)c2)n1 | < 5 |
| CS(=O)(=O)c1cccc(Nc2nccc(-c3cccnc3NCCCN)n2)c1 | < 5 |
| COc1ccc(-c2ccnc(Nc3cccc(S(C)(=O)=O)c3)n2)c(OC)n1 | < 5 |
| N#Cc1cccc(Nc2nccc(-c3cccnc3NCCCN)n2)c1 | < 5 |
| CCNS(=O)(=O)c1cccc(Nc2nccc(-c3cccnc3OC)n2)c1 | < 5 |
| CC(=O)NCCCCNc1ncccc1-c1ccnc(Nc2cccc(Cl)c2)n1 | < 5 |
| CC(=O)NCCCNc1cc(-c2ccnc(Nc3cccc(Cl)c3)n2)cc(C)n1 | < 5 |
| COc1ncccc1-c1ccnc(Nc2cccc(C(=O)O)c2)n1 | < 5 |
| Cc1c(-c2ccnc(Nc3cccc(Cl)c3)n2)ccnc1NCCCn1ccnc1 | < 5 |
| CCOC(=O)c1cccc(Nc2nccc(-c3cccnc3OC)n2)c1 | < 5 |
| OCCCNc1ncccc1-c1ccnc(Nc2cccc(Cl)c2)n1 | < 5 |
| NCCCNc1ncccc1-c1ccnc(Nc2cccc(Cl)c2)n1 | < 5 |
| CCNC(=O)c1cccc(Nc2nccc(-c3cccnc3OC)n2)c1 | < 5 |
| COCCCNc1ncccc1-c1ccnc(Nc2cccc(Cl)c2)n1 | < 5 |
| Cc1c(-c2ccnc(Nc3cccc(Cl)c3)n2)ccnc1NCCCN1CCCC1=O | < 5 |

| SMILES | IC50 [µM] |
| --- | --- |
| COc1ncccc1-c1ccnc(Nc2cccc(S(N)(=O)=O)c2)n1 | < 5 |
| COc1ncccc1-c1ccnc(Nc2cccc(C(N)=O)c2)n1 | < 5 |
| COc1ncccc1-c1ccnc(Nc2cccc(S(=O)(=O)NCCO)c2)n1 | < 5 |
| Cc1cnc(Nc2cccc(Cl)c2)nc1-c1cccnc1NCCCN | < 5 |
| CC(=O)NCCCNc1nccc(-c2ccnc(Nc3cccc(Cl)c3)n2)c1C | < 5 |
| CC(=O)OCCCNc1ncccc1-c1ccnc(Nc2cccc(Cl)c2)n1 | < 5 |
| COc1ncccc1-c1ccnc(Nc2cccc(C(=O)OC(C)(C)C)c2)n1 | < 5 |
| COc1ncccc1-c1ccnc(Nc2ccc3cn[nH]c3c2)n1 | < 5 |
| Clc1cccc(Nc2nccc(-c3cccnc3NCCCn3ccnc3)n2)c1 | < 5 |
| COc1ncccc1-c1ccnc(Nc2cccc(-c3cnco3)c2)n1 | < 5 |
| NCCNc1ncccc1-c1ccnc(Nc2cccc(Cl)c2)n1 | < 5 |
| CC(=O)NCCCNc1cc(-c2nc(Nc3cccc(Cl)c3)ncc2C)ccn1 | < 5 |
| CC(=O)NCCCNc1ncccc1-c1ccnc(Nc2cccc(S(N)(=O)=O)c2)n1 | < 5 |
| CC(C)NCCCNc1ncccc1-c1ccnc(Nc2cccc(Cl)c2)n1 | < 5 |
| COc1cnccc1-c1ccnc(Nc2cccc(Cl)c2)n1 | < 5 |

Further lines, results first:

| IC50 [µM] | SMILES |
| --- | --- |
| < 5 | CS(=O)(=O)NCCCNc1ncccc1-c1ccnc(Nc2cccc(Cl)c2)n1 |
| < 5 | COc1ncccc1-c1ccnc(Nc2cccc(-c3nncn3C)c2)n1 |
| < 5 | COCCCNc1nccc(-c2ccnc(Nc3cccc(Cl)c3)n2)c1C |
| < 5 | Clc1cccc(Nc2nccc(-c3cccnc3NCCc3c[nH]cn3)n2)c1 |
| < 5 | CC(=O)NCCNc1ncccc1-c1ccnc(Nc2cccc(Cl)c2)n1 |
| < 5 | CNCCNc1nccc(-c2ccnc(Nc3cccc(Cl)c3)n2)c1C |
| < 5 | Cc1cnccc1-c1ccnc(Nc2cccc(Cl)c2)n1 |
| < 5 | CC(=O)NCC(C)(C)CNc1ncccc1-c1ccnc(Nc2cccc(Cl)c2)n1 |
| < 5 | CC(=O)NCCCNc1ncccc1-c1ccnc(Nc2cccc(C#N)c2)n1 |
| < 5 | COc1ncccc1-c1ccnc(Nc2cccc(NC(C)=O)c2)n1 |
| < 5 | Clc1cccc(Nc2nccc(-c3cccnc3NCCCN3CCOCC3)n2)c1 |
| < 5 | NS(=O)(=O)c1cccc(Nc2nccc(-c3cccnc3NCCCn3ccnc3)n2)c1 |
| < 5 | COc1ncccc1-c1ccnc(Nc2cccc(C#N)c2)n1 |
| < 5 | CNS(=O)(=O)c1cccc(Nc2nccc(-c3cccnc3OC)n2)c1 |
| < 5 | COc1ncccc1-c1ccnc(Nc2cccc(S(C)(=O)=O)c2)n1 |
| < 5 | CC(=O)NCCCNc1nccc(-c2ccnc(Nc3cccc([N+](=O)[O-])c3)n2)c1C |
| < 5 | CCCCNS(=O)(=O)c1cccc(Nc2nccc(-c3cccnc3OC)n2)c1 |
| < 5 | COc1ncccc1-c1ccnc(Nc2cccc(S(=O)(=O)N3CCCCC3)c2)n1 |
| < 5 | COc1ncccc1-c1ccnc(Nc2ccc(N3CCN(C)CC3)cc2)n1 |
| < 5 | COc1cnccc1-c1ccnc(Nc2cccc(S(C)(=O)=O)c2)n1 |
| < 5 | NCCCNc1ncccc1-c1ccnc(Nc2cccc(S(N)(=O)=O)c2)n1 |
| < 5 | O=C1CCCN1CCCNc1ncccc1-c1ccnc(Nc2cccc(Cl)c2)n1 |
| < 5 | COc1ncccc1-c1ccnc(Nc2cccc(C3CCNCC3)c2)n1 |
| < 5 | COc1cnccc1-c1ccnc(Nc2cccc(S(N)(=O)=O)c2)n1 |
| < 5 | NCCCCNc1ncccc1-c1ccnc(Nc2cccc(Cl)c2)n1 |
| < 5 | CN(C)CCCNc1ncccc1-c1ccnc(Nc2cccc(Cl)c2)n1 |
| < 5 | CC(C)(CN)CNc1ncccc1-c1ccnc(Nc2cccc(Cl)c2)n1 |
| < 5 | Cc1c(-c2ccnc(Nc3cccc(Cl)c3)n2)ccnc1NCc1ccccc1 |
| < 5 | Cc1nccn1CCCNc1ncccc1-c1ccnc(Nc2cccc(Cl)c2)n1 |
| < 5 | Nc1cnccc1-c1ccnc(Nc2cccc(Cl)c2)n1 |
